Assay results as given in patent publication US20130337579A1, “Methods for Determining Protein Ligand Binding” (UNIVERSITY OF MARYLAND, COLLEGE PARK, priority 2010, published 2013).

Tests used:
[1] = tested on: lysates from various organisms or tissues; test: DRaCALA analysis of cdiGMP binding by lysates from various organisms or tissues
[2] = target: T1, Alg44PilZ expressed in E. coli BL21(DE3) (Pseudomonas aeruginosa, UniProt Q9HY69); test: DRaCALA of whole cell lysates of E. coli BL21(DE3) expressing Alg44PilZ; type: binding, P. aeruginosa
T1 construct: E. coli BL21(DE3) expressing Alg44PilZ and variants; expressed in transfected cells; host or cells: E. coli BL21(DE3), whole cell lysate
T1 sequence (Q9HY69 16-116): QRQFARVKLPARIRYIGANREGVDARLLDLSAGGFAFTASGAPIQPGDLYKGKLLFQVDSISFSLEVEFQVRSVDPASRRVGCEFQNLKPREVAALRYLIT
From the text: A major limitation of most biochemical assays is the requirement for purified protein. We asked whether DRaCALA could be applied to crude extracts to overcome this limitation. Alg44PilZ binding to cdiGMP requires a number of conserved residues, including R17, R21, D44 and S46, in the PilZ domain of the protein. E. coli BL21(DE3) expressing Alg44PilZ and variants with R21A, D44A, S46A, and R17A/R21A substitutions were lysed and tested for binding to cdiGMP using DRaCALA. […] Only the whole cell lysates from E. coli expressing wild-type Alg44PilZ sequestered ^32P-cdiGMP (FIG. 4A). […] A significant difference between the bound fractions for cdiGMP or GTP competition experiments was detected for the wild-type Alg44PilZ, but not for the PilZ domain mutants (FIGS. 4A and 4B). […]
Protein or whole cell lysates in 1× cdiGMP binding buffer (20 μl) was mixed with 4 nM of radiolabeled nucleotide and allowed to incubate for 10 minutes at room temperature. […] These mixtures were pipetted (2.5-5 μl) onto dry, untreated nitrocellulose (GE Healthcare) in triplicate and allowed to dry completely before quantification. An FLA7100 Fujifilm Life Science Phosphorimager was used to detect luminescence following a 5-minute exposure of blotted nitrocellulose to phosphorimager film. Data was quantified using Fujifilm Multi Gauge software v3.0. […]

PelD = test: DRaCALA of whole cell lysates of E. coli BL21(DE3) expressing PelD; type: binding, P. aeruginosa; details: PelD with or without MBP tag
Procedure: FIG. 10. Binding of cdiGMP to whole cell lysates expressing soluble or insoluble cdiGMP binding proteins. (A) BL21(DE3) cells expressing the indicated proteins were analyzed by PAGE and coomassie staining of whole cell (W) and soluble (S) fractions. Arrows indicate the overexpressed protein of the correct molecular weight in whole cell lysates. Molecular weights of proteins are indicated on the left in kilodaltons. (B) Spots of BL21 cells overexpressing the indicated proteins were assayed for cdiGMP binding by DRaCALA. (C) Quantification of the data shown in (B). (D) Binding of ^32P-cdiGMP to various dilutions of lysates of BL21(DE3) cells expressing the indicated proteins.
A major limitation of most biochemical assays is the requirement for purified protein. We asked whether DRaCALA could be applied to crude extracts to overcome this limitation. Alg44PilZ binding to cdiGMP requires a number of conserved residues, including R17, R21, D44 and S46, in the PilZ domain of the protein. E. coli BL21(DE3) expressing Alg44PilZ and variants with R21A, D44A, S46A, and R17A/R21A substitutions were lysed and tested for binding to cdiGMP using DRaCALA. […] A significant difference between the bound fractions for cdiGMP or GTP competition experiments was detected for the wild-type Alg44PilZ, but not for the PilZ domain mutants (FIGS. 4A and 4B). […]

[3] = target: T2, P. aeruginosa Alg44PilZ (His-MBP-Alg44PilZ) (Pseudomonas aeruginosa, UniProt Q9HY69); test: biochemical; type: binding
T2 construct: His-MBP-Alg44PilZ was varied from 100 μM to 6 nM; made in house; host or cells: E. coli BL21(DE3)
T2 sequence (Q9HY69 16-116): as above
From the text: DRaCALA exploits the ability of nitrocellulose membranes to preferentially sequester proteins over small molecule ligands. When a mixture of protein and radiolabeled ligand is spotted onto a dry nitrocellulose membrane, protein and bound ligand are immobilized at the site of contact while free ligand is mobilized by capillary action with the liquid phase (FIG. 1A). DRaCALA is a rapid assay, as the capillary action can be completed in less than 5 seconds. […] Because capillary action distributes the unbound ligand throughout the mobile phase, the calculation for the fraction bound (FB) can be corrected for this background (see below for edge effects at the solvent front and annulation of the protein). Therefore, FB is defined by the equation in FIG. 1B, where Iinner is the intensity of signal in the area with protein (inner circle) and Itotal is the total signal of the entire sample (outer circle). The Iinner signal consists of both ligand bound to protein and unbound ligand that has not mobilized beyond the area of the inner circle, which we define as Ibackground. Ibackground can be calculated by subtracting the signal intensity of the Iinner from the total ligand Itotal and adjusting for the relative areas of the inner (Ainner) and outer circles (Atotal) (FIG. 1B).
Radiolabeled ligands were incubated with each of the proteins and the mixtures were spotted on nitrocellulose. After spreading by capillary action, membranes were dried and quantitated by phosphorimager. […] The specificity of Alg44PilZ binding to cdiGMP was further tested by competition with excess unlabeled nucleotides (400-fold molar excess relative to the Alg44PilZ protein).
Kd can be measured by altering either the protein or ligand concentrations in titration experiments; since DRaCALA detects only the ligand mobility, ligand concentrations can be always held constant. […] Since the assay is completed in less than 5 seconds, DRaCALA can also be used to determine the koff for those protein-ligand complexes with slower off rates. koff was determined for cdiGMP and Alg44PilZ by spotting at the indicated time points after the addition of 1 mM unlabeled cdiGMP to a pre-incubated mixture of Alg44PilZ and ^32P-cdiGMP (FIG. 3C). […] Both edge and annulation effects are explained in FIG. 8. The edge effect is due to evaporation of the solvent during the time of the experiment, and is dependent on the humidity of the local environment around the nitrocellulose support. The evaporation results in a smaller total area (Atotal observed in FIG. 8A) and leads to an increased value in the calculated Ibackground. As a secondary correction for the edge effect, the fraction bound determined for spotted ligand in the absence of protein can be subtracted from all samples in parallel (FIG. 8B).

Nc1nc2c(ncn2[C@@H]2O[C@@H]3CO[P@](=O)(O)O[C@H]4[C@@H](O)[C@H](n5cnc6c(=O)[nH]c(N)nc65)O[C@@H]4CO[P@](=O)(O)O[C@H]3[C@H]2O)c(=O)[nH]1 [cdiGMP, cyclic-di-GMP]
BC (non-specific binding) ([1]; mammalian tissue extracts from rodent and human cell lines): > 0.233
BSp ([1]; whole cell extracts of protozoa, fungi and nematodes): below 1.17
specific sequestration by whole cell extracts with soluble or insoluble protein ([2]; Alg44PilZ with or without MBP tag, BL21 whole cell extracts): specifically sequester
sequestration of 32P-cdiGMP by whole cell lysate ([2]; E. coli BL21(DE3) expressing wild-type Alg44PilZ): sequestered
specific sequestration by whole cell extracts with soluble or insoluble protein (PelD): specifically sequester
Kd [3]: 1600 nM
koff [3]: 0.017 ± 0.002 s⁻¹
binding to Alg44PilZ (sequestration of radiolabel signal) ([3]; 20 μM purified protein, 500 nM 14C-cAMP, 4 nM 32P-ATP or 4 nM 32P-cdiGMP): bound
time until 32P-cdiGMP binding completely competed away ([3]; 1 mM unlabeled cdiGMP): ≤ 90 s
half-life (t1/2) ([3]; corresponding to koff, DRaCALA): 35.6 ± 10.7 s
